Measured values taken from patent publication US10894784B2, “Heteroarylbenzimidazole compounds” (BAYER PHARMA AKTIENGESELLSCHAFT, priority 2015, dated 2021).

Target: TBK1 (Homo sapiens (Human), UniProt Q9UHD2)
Experiment: TBK1 low ATP kinase assay (in vitro assay 1)
Type: biochemical
Conditions: in vitro assay 1, read-out: TBK1 low ATP kinase assay IC50

Chain of TBK1 (Q9UHD2 whole entry): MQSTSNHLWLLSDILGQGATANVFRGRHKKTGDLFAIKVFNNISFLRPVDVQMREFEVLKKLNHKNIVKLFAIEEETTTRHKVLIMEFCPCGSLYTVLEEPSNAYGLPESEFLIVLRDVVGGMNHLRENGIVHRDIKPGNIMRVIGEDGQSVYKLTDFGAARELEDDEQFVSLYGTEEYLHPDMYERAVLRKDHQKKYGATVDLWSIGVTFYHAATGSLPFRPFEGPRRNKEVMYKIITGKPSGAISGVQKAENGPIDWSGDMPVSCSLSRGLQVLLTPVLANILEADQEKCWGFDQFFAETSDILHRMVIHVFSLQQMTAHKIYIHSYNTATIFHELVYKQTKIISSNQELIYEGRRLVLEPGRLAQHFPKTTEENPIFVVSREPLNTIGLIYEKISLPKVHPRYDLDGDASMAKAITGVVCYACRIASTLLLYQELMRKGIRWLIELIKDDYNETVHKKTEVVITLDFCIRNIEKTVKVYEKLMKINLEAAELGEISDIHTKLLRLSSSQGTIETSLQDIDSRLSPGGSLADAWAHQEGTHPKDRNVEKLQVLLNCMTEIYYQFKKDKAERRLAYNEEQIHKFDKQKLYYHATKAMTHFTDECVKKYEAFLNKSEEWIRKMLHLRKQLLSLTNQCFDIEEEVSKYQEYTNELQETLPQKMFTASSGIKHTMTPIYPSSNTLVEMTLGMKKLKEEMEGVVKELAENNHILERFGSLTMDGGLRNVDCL

IC50 | Structure (SMILES)
2240 nM | Cc1c(-c2ccc3nc(Nc4cc(CN5CCN(C(=O)C6CC6)CC5)ccn4)[nH]c3c2)ncnc1C(F)(F)F [Example 183.03, cyclopropyl(4-{[2-({6-[5-methyl-6-(trifluoromethyl)pyrimidin-4-yl]-1H-benzimidazol-2-yl}amino)pyridin-4-yl]methyl}piperazin-1-yl)methanone]
140 nM | Cc1cc(-c2ccc3nc(Nc4cc(CN5CCN(C(=O)OC(C)(C)C)CC5)ccn4)[nH]c3c2)c(F)cn1 [Example 131.01, tert-butyl 4-[(2-{[6-(5-fluoro-2-methylpyridin-4-yl)-1H-benzimidazol-2-yl]amino}pyridin-4-yl)methyl]piperazine-1-carboxylate]
100 nM | CC(c1ccnc(Nc2nc3ccc(-c4cnn(CC5CCCC5)c4)cc3[nH]2)c1)N1CCN(C(=O)OC(C)(C)C)CC1 (single isomer, unassigned) [Example 71.01, tert-butyl 4-{(1R or 1S)-1-[2-({6-[1-(cyclopentylmethyl)-1H-pyrazol-4-yl]-1H-benzimidazol-2-yl}amino)pyridin-4-yl]ethyl}piperazine-1-carboxylate]
12.4 nM | Cc1nccc(-c2ccc3nc(Nc4cc(C(C)N5CCN(C(=O)CC(F)(F)F)CC5)ccn4)[nH]c3c2)n1 (racemic) [Example 24.04.03, (rac)-3,3,3-trifluoro-1-{4-[1-(2-{[6-(2-methylpyrimidin-4-yl)-1H-benzimidazol-2-yl]amino}pyridin-4-yl)ethyl]piperazin-1-yl}propan-1-one]
690 nM | Cc1cccc(N2CCN(Cc3ccnc(Nc4nc5ccc(-c6nc(C)no6)cc5[nH]4)c3)CC2)c1 [Example 101.03, 6-(3-methyl-1,2,4-oxadiazol-5-yl)-N-(4-{[4-(3-methylphenyl)piperazin-1-yl]methyl}pyridin-2-yl)-1H-benzimidazol-2-amine]
131 nM | COc1cc(-c2ccc3nc(Nc4cc(CN5CCN(C(=O)OC(C)(C)C)CC5)ccn4)[nH]c3c2)ccn1 [Example 02.01, tert-butyl 4-[(2-{[6-(2-methoxypyridin-4-yl)-1H-benzimidazol-2-yl]amino}pyridin-4-yl)methyl]piperazine-1-carboxylate]
120 nM | CC(c1ccnc(Nc2nc3ccc(-c4cnn(C(C)C5CC5)c4)cc3[nH]2)c1)N1CCN(C(=O)OC(C)(C)C)CC1 (single isomer, unassigned) [Example 74.01, tert-butyl 4-[(1R or 1S)-1-{2-[(6-{1-[(1RS)-1-cyclopropylethyl]-1H-pyrazol-4-yl}-1H-benzimidazol-2-yl)amino]pyridin-4-yl}ethyl]piperazine-1-carboxylate]
4.8 nM | COCc1cc(-c2ccc3nc(Nc4cc(CN5CCN(C(=O)C6CC6)CC5)ccn4)[nH]c3c2)ncn1 [Example 79.02, cyclopropyl(4-{[2-({6-[6-(methoxymethyl)pyrimidin-4-yl]-1H-benzimidazol-2-yl}amino)pyridin-4-yl]methyl}piperazin-1-yl)methanone]
335 nM | Cc1noc(-c2ccc3nc(Nc4cc(CN5C[C@@H](C)N(C(=O)CC(F)(F)F)C[C@@H]5C)ccn4)[nH]c3c2)n1 [Example 16.02.02, 1-{(2R,5S)-2,5-dimethyl-4-[(2-{[6-(3-methyl-1,2,4-oxadiazol-5-yl)-1H-benzimidazol-2-yl]amino}pyridin-4-yl)methyl]piperazin-1-yl}-3,3,3-trifluoropropan-1-one]
13 nM | CC(C)(C)OC(=O)N1CCN(Cc2ccnc(Nc3nc4ccc(-c5cnc(Br)cn5)cc4[nH]3)c2)CC1 [Example 140.01, tert-butyl 4-[(2-{[6-(5-bromopyrazin-2-yl)-1H-benzimidazol-2-yl]amino}pyridin-4-yl)methyl]piperazine-1-carboxylate]
28.6 nM | COc1nc(-c2ccc3nc(Nc4cc(CN5CCN(C(=O)CC(F)(F)F)CC5)ccn4)[nH]c3c2)cc(N(C)C)n1 [Example 189.02, 1-(4-{[2-({6-[6-(dimethylamino)-2-methoxypyrimidin-4-yl]-1H-benzimidazol-2-yl}amino)pyridin-4-yl]methyl}piperazin-1-yl)-3,3,3-trifluoropropan-1-one]
12.8 nM | O=C(C1CCC1)N1CCN(Cc2ccnc(Nc3nc4ccc(-c5cnn(CC(F)(F)F)c5)cc4[nH]3)c2)CC1 [Example 58.01.01, cyclobutyl(4-{[2-({6-[1-(2,2,2-trifluoroethyl)-1H-pyrazol-4-yl]-1H-benzimidazol-2-yl}amino)pyridin-4-yl]methyl}piperazin-1-yl)methanone]
270 nM | CCOc1c(-c2ccncc2OC)ccc2nc(Nc3cc(CN4CCN(C(=O)CC5CC5)CC4)ccn3)[nH]c12 [Example 51.02, 2-cyclopropyl-1-{4-[(2-{[7-ethoxy-6-(3-methoxypyridin-4-yl)-1H-benzimidazol-2-yl]amino}pyridin-4-yl)methyl]piperazin-1-yl}ethanone]
362 nM | CN(C)c1ccnc(-c2ccc3nc(Nc4cc(CN5CCN(C(=O)C6CC6)CC5)ccn4)[nH]c3c2)n1 [Example 181.03, cyclopropyl(4-{[2-({6-[4-(dimethylamino)pyrimidin-2-yl]-1H-benzimidazol-2-yl}amino)pyridin-4-yl]methyl}piperazin-1-yl)methanone]
30.7 nM | COc1cc(-c2ccc3nc(Nc4cc(CN5CCN(C(=O)C6CC6)CC5)ccn4)[nH]c3c2)ccn1 [Example 02.02, cyclopropyl{4-[(2-{[6-(2-methoxypyridin-4-yl)-1H-benzimidazol-2-yl]amino}pyridin-4-yl)methyl]piperazin-1-yl}methanone]
397 nM | CC(C)Cc1nc(-c2ccc3nc(Nc4cc(CN5CCN(C(=O)CC(F)(F)F)CC5)ccn4)[nH]c3c2)n(C)n1 [Example 42.02, 3,3,3-trifluoro-1-(4-{[2-({6-[1-methyl-3-(2-methylpropyl)-1H-1,2,4-triazol-5-yl]-1H-benzimidazol-2-yl}amino)pyridin-4-yl]methyl}piperazin-1-yl)propan-1-one]
23 nM | COc1c(C)ncnc1-c1ccc2nc(Nc3cc(CN4CCN(C(=O)C5CC5)CC4)ccn3)[nH]c2c1 [Example 61.01.02, cyclopropyl{4-[(2-{[6-(5-methoxy-6-methylpyrimidin-4-yl)-1H-benzimidazol-2-yl]amino}pyridin-4-yl)methyl]piperazin-1-yl}methanone]
125 nM | Cc1noc(-c2ccc3nc(Nc4cc(CN5CCN(C(=O)OC(C)(C)C)C[C@H]5C)ccn4)[nH]c3c2)n1 [Example 16.03.01, tert-butyl (3R)-3-methyl-4-[(2-{[6-(3-methyl-1,2,4-oxadiazol-5-yl)-1H-benzimidazol-2-yl]amino}pyridin-4-yl)methyl]piperazine-1-carboxylate]
4.3 nM | Nc1cc(-c2ccc3nc(Nc4cc(CN5CCN(C(=O)C6CC6)CC5)ccn4)[nH]c3c2)ccn1 [Example 138.03, {4-[(2-{[6-(2-aminopyridin-4-yl)-1H-benzimidazol-2-yl]amino}pyridin-4-yl)methyl]piperazin-1-yl}(cyclopropyl)methanone]
17 nM | CCN(CC)c1cc(-c2ccc3nc(Nc4cc(CN5CCN(C(=O)C6CC6)CC5)ccn4)[nH]c3c2)ncn1 [Example 155.03, cyclopropyl(4-{[2-({6-[6-(diethylamino)pyrimidin-4-yl]-1H-benzimidazol-2-yl}amino)pyridin-4-yl]methyl}piperazin-1-yl)methanone]
378 nM | Cc1noc(-c2ccc3nc(Nc4cc(CN5CCN(C(=O)CC6CC6)CC5(C)C)ccn4)[nH]c3c2)n1 [Example 16.04.03, 2-cyclopropyl-1-{3,3-dimethyl-4-[(2-{[6-(3-methyl-1,2,4-oxadiazol-5-yl)-1H-benzimidazol-2-yl]amino}pyridin-4-yl)methyl]piperazin-1-yl}ethanone]
2.7 nM | CC(c1ccnc(Nc2nc3ccc(-c4cc(N5CCCC5)ncn4)cc3[nH]2)c1)N1CCN(C(=O)C(C)(C)O)CC1 (single isomer, unassigned) [Example 117.07, 2-hydroxy-2-methyl-1-(4-{(1R or 1S)-1-[2-({6-[6-(pyrrolidin-1-yl)pyrimidin-4-yl]-1H-benzimidazol-2-yl}amino)pyridin-4-yl]ethyl}piperazin-1-yl)propan-1-one]
7.7 nM | CCOc1cc(-c2ccc3nc(Nc4cc(CN5CCN(C(=O)CC(F)(F)F)CC5)ccn4)[nH]c3c2)ncn1 [Example 161.02, 1-{4-[(2-{[6-(6-ethoxypyrimidin-4-yl)-1H-benzimidazol-2-yl]amino}pyridin-4-yl)methyl]piperazin-1-yl}-3,3,3-trifluoropropan-1-one]
352 nM | CCOc1cnc(C)cc1-c1ccc2nc(Nc3cc(CN4CCN(C(=O)C5CCC5)CC4)ccn3)[nH]c2c1 [Example 09.04, cyclobutyl{4-[(2-{[6-(5-ethoxy-2-methylpyridin-4-yl)-1H-benzimidazol-2-yl]amino}pyridin-4-yl)methyl]piperazin-1-yl}methanone]
170 nM | COc1ccccc1N1CCN(Cc2ccnc(Nc3nc4ccc(-c5nc(C)no5)cc4[nH]3)c2)CC1 [Example 101.07, N-(4-{[4-(2-methoxyphenyl)piperazin-1-yl]methyl}pyridin-2-yl)-6-(3-methyl-1,2,4-oxadiazol-5-yl)-1H-benzimidazol-2-amine]
217 nM | COc1cc(-c2ccc3nc(Nc4cc(CN5CCN(C(=O)C6CC6)CC5)ccn4)[nH]c3c2OCC(C)C)ccn1 [Example 49.01, cyclopropyl{4-[(2-{[6-(2-methoxypyridin-4-yl)-7-(2-methylpropoxy)-1H-benzimidazol-2-yl]amino}pyridin-4-yl)methyl]piperazin-1-yl}methanone]
5 nM | CC(C)N(C)c1cc(-c2ccc3nc(Nc4cc(CN5CCN(C(=O)C6CC6)CC5)ccn4)[nH]c3c2)ncn1 [Example 153.03, cyclopropyl[4-({2-[(6-{6-[methyl(propan-2-yl)amino]pyrimidin-4-yl}-1H-benzimidazol-2-yl)amino]pyridin-4-yl}methyl)piperazin-1-yl]methanone]

Structure (SMILES) | IC50
Cc1noc(-c2ccc3nc(Nc4cc(CN5CCN(C(=O)CC(F)(F)F)CC5)ccn4)[nH]c3c2)n1 [Example 16.01.02, 3,3,3-trifluoro-1-{4-[(2-{[6-(3-methyl-1,2,4-oxadiazol-5-yl)-1H-benzimidazol-2-yl]amino}pyridin-4-yl)methyl]piperazin-1-yl}propan-1-one] | 109 nM
